# Test results published in patent publication US4727062A, “3-Halovinylglycine antibacterial agents” (Merck & Co., Inc., priority 1986, dated 1988).
# Experiments:
# E. coli TEM 2^+ = assay: Agar dilution assay, M.I.C.; format: cell-based
# Description: (§1) Representative 3-halovinylglycines and amino acid conjugates were tested for antibacterial activity by an agar dilution assay [being an modification of the antagonist-free-medium assay described in: Antimicrobial Agents and Chemotherapy, May 1979, pp 677-683 and pp 684-695]. Compounds asayed include (L) and (D)-3-chlorovinylglycine (HCL salts), (L) norvalyl-(L), (D), and (DL)-3-chlorovinylglycine (CF3 COOH salts), and (L) norvalyl-(L), (D), and (DL)-3 fluorovinylglycine (CF3 COOH) salts.
# (§2) The antibacterial activity of the representative structure I compounds versus eleven representative strains of pathogenic bacteria is shown in the following Table.
# (§3) Agar Dilution Asay [minimum inhibitory concentration (M.I.C.)-mg/ml]
# S. aureus = assay: Agar dilution assay, M.I.C.; format: cell-based; conditions: for minimum inhibitory concentration (M.I.C.): agar dilution, S. aureus
# Description: as §1, §2, §3
# Ps. aeruginosa = assay: Agar dilution assay, M.I.C.; format: cell-based
# Description: as §1, §2, §3
# E. coli DC2 = assay: Agar dilution assay, M.I.C.; format: cell-based
# Description: as §1, §2, §3
# Strep. faecalis = assay: Agar dilution assay, M.I.C.; format: cell-based
# Description: as §1, §2, §3
# Ser. marcescens = assay: Agar dilution assay, M.I.C.; format: cell-based
# Description: as §1, §2, §3
# Sal. typhimurium = assay: Agar dilution assay, M.I.C.; format: cell-based
# Description: as §1, §2, §3
# Prot. vulgaris = assay: Agar dilution assay, M.I.C.; format: cell-based
# Description: as §1, §2, §3
# K. pneumoniae = assay: Agar dilution assay, M.I.C.; format: cell-based; conditions: for minimum inhibitory concentration (M.I.C.): agar dilution, K. pneumoniae
# Description: as §1, §2, §3
# E. coli = assay: Agar dilution assay, M.I.C.; format: cell-based
# Description: as §1, §2, §3
# cystathionine synthetase = conditions: synthesis of cystathionine from serine; cited from earlier work
# Ent. cloacae P99^- = assay: Agar dilution assay, M.I.C.; format: cell-based
# Description: as §1, §2, §3
# [1] = tested on: eleven representative strains of pathogenic bacteria; assay: Agar dilution assay, panel of eleven strains; format: cell-based; conditions: for number of test species against which activity is shown: M.I.C. equal to or less than 256 indicates antibacterial activity
# Description: as §1, §2
Compound,minimum inhibitory concentration (M.I.C.) (E. coli TEM 2^+) [mg/mL],minimum inhibitory concentration (M.I.C.) (S. aureus) [mg/mL],minimum inhibitory concentration (M.I.C.) (Ps. aeruginosa) [mg/mL],minimum inhibitory concentration (M.I.C.) (E. coli DC2) [mg/mL],minimum inhibitory concentration (M.I.C.) (Strep. faecalis) [mg/mL],minimum inhibitory concentration (M.I.C.) (Ser. marcescens) [mg/mL],minimum inhibitory concentration (M.I.C.) (Sal. typhimurium) [mg/mL],minimum inhibitory concentration (M.I.C.) (Prot. vulgaris) [mg/mL],minimum inhibitory concentration (M.I.C.) (K. pneumoniae) [mg/mL],minimum inhibitory concentration (M.I.C.) (E. coli) [mg/mL],inactivation of cystathionine synthetase (in words) (cystathionine synthetase),minimum inhibitory concentration (M.I.C.) (Ent. cloacae P99^-) [mg/mL],number of test species against which activity is shown [1],"antibacterial activity compared with the (L,D) diastereomer ([1]; antibacterial agar dilution assay)",antibacterial activity (in words) (S. aureus; vs S. aureus),antibacterial activity (in words) (K. pneumoniae; vs K. pneumoniae)
"C=C(Cl)C(NC(=O)[C@@H](N)CCC)C(=O)O (mixture of isomers) [(L)-NVA-(DL)-Cl-vinylgly, L-norvalyl-D,L-3-chlorovinylglycine]",> 256,≤ 0.25,> 256,4,4,> 256,256,256,32,128,–,–,–,–,–,–
"C=C(Cl)C(N)C(=O)O (racemic) [racemic 3-chlorovinylglycine, 2-amino-3-chloro-3-butenoic acid]",–,–,–,–,–,–,–,–,–,–,not being an inactivator,–,–,–,–,–
"CCC[C@H](N)C(=O)N[C@H](C=CCl)C(=O)O [(L)-NVA-(D)-Cl-vinylgly, L-norvalyl-D-3-chlorovinylglycine]",256,16,> 256,32,128,–,–,> 256,64,> 256,–,–,–,–,–,–
"C=C(F)[C@@H](NC(=O)[C@@H](N)CCC)C(=O)O.O=C(O)C(F)(F)F [(L)-NVA-(D)-F-vinylgly, (L,D)-Norvalyl-3-fluorovinylglycine trifluoroacetate]",> 256,> 256,> 256,> 256,> 256,> 256,> 256,> 256,> 256,> 256,–,–,–,–,–,–
"C=C(F)C(NC(=O)[C@@H](N)CCC)C(=O)O (stereo partly drawn) [(L)-NVA-(DL)-F-vinylgly, (L,DL)-Norvalyl-3-fluorovinylglycine trifluoracetate]",128,1.0,> 256,4,> 256,256,256,> 256,128,8,–,64,–,–,–,–
"C=C(Cl)[C@H](NC(=O)[C@@H](N)CCC)C(=O)O.O=C(O)C(F)(F)F [(L)-NVA-(L)-Cl-vinylgly, (L,L)-Norvalyl 3-chlorovinylglycine trifluoroacetate]",8,0.5,> 256,1,4,> 256,64,256,2,32,–,–,8 of 11,–,–,–
"C=C(F)[C@H](NC(=O)[C@@H](N)CCC)C(=O)O.O=C(O)C(F)(F)F [(L)-NVA-(L)-F-vinylgly, (L,L)-Norvalyl-3-fluorovinylglycine trifluoroacetate]",16,> 256,> 256,2,64,64,128,32,2,4,–,32,9 of 11,more active,–,–
"N[C@@H](C=CCl)C(=O)O [(L)Cl vinylgly, L-3-chlorovinylglycine]",> 256,128,> 256,–,–,> 256,> 256,> 256,256,> 256,–,–,–,–,exhibits antibacterial activity,exhibits antibacterial activity
